Measured values taken from ChEMBL document CHEMBL2034833, “Synthesis of chalcone-amidobenzothiazole conjugates as antimitotic and apoptotic inducing agents” (Bioorg Med Chem, 2012).

Key:
BT-549 = experiment: Growth inhibition of human BT549 cells after 48 hrs by sulforhodamine B assay; format: functional; settings: BT-549, 48 h
HCT-15 = experiment: Growth inhibition of human HCT15 cells after 48 hrs by sulforhodamine B assay; format: functional; settings: HCT-15, 48 h
ACHN [1] = experiment: Growth inhibition of human ACHN cells after 48 hrs by sulforhodamine B assay; format: functional
UACC-62 = experiment: Growth inhibition of human UACC62 cells after 48 hrs by sulforhodamine B assay; format: functional; settings: UACC-62, 48 h
MCF7 [2] = experiment: cells; settings: Homo sapiens, MCF7, 48 h
Description: Cytotoxicity against human MCF7 cells after 48 hrs by MTT assay

A549 [3] = experiment: Cell cycle arrest in human A549 cells assessed as cell accumulation at subG1 phase at 2 uM after 48 hrs by propidium iodide staining based flow cytometry (reference value: […]); format: functional
T47D = experiment: Growth inhibition of human T47D cells after 48 hrs by sulforhodamine B assay; format: functional
SK-OV-3 = experiment: Growth inhibition of human SKOV3 cells after 48 hrs by sulforhodamine B assay; format: functional; settings: SK-OV-3, 48 h
U-251 = experiment: Growth inhibition of human U251 cells after 48 hrs by sulforhodamine B assay; format: functional; settings: U-251, 48 h
NCI-H460 = experiment: Growth inhibition of human NCI-H460 cells after 48 hrs by sulforhodamine B assay; format: functional; settings: NCI-H460, 48 h
SK-MEL-28 = experiment: Growth inhibition of human SK-MEL-28 cells after 48 hrs by sulforhodamine B assay; format: functional; settings: SK-MEL-28, 48 h
COLO 205 = experiment: Growth inhibition of human COLO205 cells after 48 hrs by sulforhodamine B assay; format: functional; settings: COLO 205, 48 h
SF-295 = experiment: Growth inhibition of human SF295 cells after 48 hrs by sulforhodamine B assay; format: functional; settings: SF-295, 48 h
ACHN [4] = experiment: Cytotoxicity against human ACHN cells after 48 hrs by MTT assay; format: functional, cell-based
Malme-3M = experiment: Growth inhibition of human MALME-3M cells after 48 hrs by sulforhodamine B assay; format: functional
A549 [5] = experiment: Cell cycle arrest in human A549 cells assessed as cell accumulation at S phase at 4 uM after 48 hrs by propidium iodide staining based flow cytometry (reference value: […]); format: functional
NCI-H226 = experiment: Growth inhibition of human NCI-H226 cells after 48 hrs by sulforhodamine B assay; format: functional; settings: NCI-H226, 48 h
A498 = experiment: Growth inhibition of human A498 cells after 48 hrs by sulforhodamine B assay; format: functional; settings: A498, 48 h
NCI-H23 = experiment: Growth inhibition of human NCI-H23 cells after 48 hrs by sulforhodamine B assay; format: functional; settings: NCI-H23, 48 h
A549 [6] = experiment: Cell cycle arrest in human A549 cells assessed as cell accumulation at G0/G1 phase at 2 uM after 48 hrs by propidium iodide staining based flow cytometry (reference value: 70.15%); format: functional
MDA-MB-231 = experiment: Growth inhibition of human MDA-MB-231 cells after 48 hrs by sulforhodamine B assay; format: functional; settings: MDA-MB-231, 48 h
Hs-578T = experiment: Growth inhibition of human Hs578T cells after 48 hrs by sulforhodamine B assay; format: functional
HOP-62 = experiment: Growth inhibition of human HOP62 cells after 48 hrs by sulforhodamine B assay; format: functional; settings: HOP-62, 48 h
RPMI-8226 = experiment: Growth inhibition of human RPMI8226 cells after 48 hrs by sulforhodamine B assay; format: functional; settings: RPMI-8226, 48 h
IGROV-1 = experiment: Growth inhibition of human IGROV1 cells after 48 hrs by sulforhodamine B assay; format: functional; settings: IGROV-1, 48 h
DU-145 = experiment: Growth inhibition of human DU145 cells after 48 hrs by sulforhodamine B assay; format: functional; settings: DU-145, 48 h
OVCAR-3 = experiment: Growth inhibition of human OVCAR3 cells after 48 hrs by sulforhodamine B assay; format: functional; settings: OVCAR-3, 48 h
HCT-116 = experiment: Growth inhibition of human HCT116 cells after 48 hrs by sulforhodamine B assay; format: functional; settings: HCT-116, 48 h
SF-539 = experiment: Growth inhibition of human SF539 cells after 48 hrs by sulforhodamine B assay; format: functional; settings: SF-539, 48 h
UO-31 = experiment: Growth inhibition of human UO31 cells after 48 hrs by sulforhodamine B assay; format: functional; settings: UO-31, 48 h
SW-620 = experiment: Growth inhibition of human SW620 cells after 48 hrs by sulforhodamine B assay; format: functional; settings: SW-620, 48 h
M14 = experiment: Growth inhibition of human M14 cells after 48 hrs by sulforhodamine B assay; format: functional; settings: M14, 48 h
OVCAR-8 = experiment: Growth inhibition of human OVCAR8 cells after 48 hrs by sulforhodamine B assay; format: functional; settings: OVCAR-8, 48 h
MCF7 [7] = experiment: Growth inhibition of human MCF7 cells after 48 hrs by sulforhodamine B assay; format: functional; settings: MCF7, 48 h

Which results are given for COc1ccc(/C=C/C(=O)c2cc(OC)c(OC)c(OC)c2)cc1OCC(=O)Nc1nc2ccc(OC(F)(F)F)cc2s1?
GI50 (BT-549): 2710 nM; GI50 (HCT-15): 400 nM; GI50 (ACHN [1]): 1620 nM; GI50 (UACC-62): 9520 nM; IC50 (MCF7 [2]): 3300 nM; Activity (A549 [3]): 4.5%; GI50 (T47D): 3080 nM; GI50 (SK-OV-3): 2160 nM; GI50 (U-251): 700 nM; GI50 (NCI-H460): 2430 nM; GI50 (SK-MEL-28): 3310 nM; GI50 (COLO 205): 6370 nM; GI50 (SF-295): 2210 nM; IC50 (ACHN [4]): 1730 nM; GI50 (Malme-3M): 2690 nM; Activity (A549 [5]): 4.95%; GI50 (NCI-H226): 3350 nM; GI50 (A498): 7400 nM; GI50 (NCI-H23): 2150 nM; Activity (A549 [6]): 8.51%; GI50 (MDA-MB-231): 2010 nM; GI50 (Hs-578T): 3080 nM; GI50 (HOP-62): 2120 nM; GI50 (RPMI-8226): 2020 nM; GI50 (IGROV-1): 2540 nM; GI50 (DU-145): 1560 nM; GI50 (OVCAR-3): 1520 nM; GI50 (HCT-116): 1430 nM; GI50 (SF-539): 300 nM; GI50 (UO-31): 1610 nM; GI50 (SW-620): 1080 nM; GI50 (M14): 1720 nM; GI50 (OVCAR-8): 1540 nM; GI50 (MCF7 [7]): 1320 nM
